{"source": "paper PMC7305236", "about": "“The atypical chemokine receptor ACKR3/CXCR7 is a broad-spectrum scavenger for opioid peptides” (Nature Communications, 2020)", "key": {"[1]": {"biological_target": "T1, CCR5 (Homo sapiens, UniProt P51681)", "T1 construct": "expressed in transfected cells", "T1 sequence (P51681 whole entry)": "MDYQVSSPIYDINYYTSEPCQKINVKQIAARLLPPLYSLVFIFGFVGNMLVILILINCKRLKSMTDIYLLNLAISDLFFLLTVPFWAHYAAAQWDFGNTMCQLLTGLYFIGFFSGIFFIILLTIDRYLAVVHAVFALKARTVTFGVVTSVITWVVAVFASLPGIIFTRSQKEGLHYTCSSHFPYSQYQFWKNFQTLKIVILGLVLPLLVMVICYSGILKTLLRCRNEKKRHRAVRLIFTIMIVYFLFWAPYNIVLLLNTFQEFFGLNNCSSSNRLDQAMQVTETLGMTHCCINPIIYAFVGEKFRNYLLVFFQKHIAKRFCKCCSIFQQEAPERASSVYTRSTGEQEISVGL", "assay": "Figure S2a opioid peptide screen on chemokine receptors", "type": "cell-based", "set-up": "dose or concentration left out as unconfirmed"}, "[2]": {"biological_target": "T2, CCR10 (Homo sapiens, UniProt P46092)", "T2 construct": "expressed in transfected cells", "T2 sequence (P46092 1-362)": "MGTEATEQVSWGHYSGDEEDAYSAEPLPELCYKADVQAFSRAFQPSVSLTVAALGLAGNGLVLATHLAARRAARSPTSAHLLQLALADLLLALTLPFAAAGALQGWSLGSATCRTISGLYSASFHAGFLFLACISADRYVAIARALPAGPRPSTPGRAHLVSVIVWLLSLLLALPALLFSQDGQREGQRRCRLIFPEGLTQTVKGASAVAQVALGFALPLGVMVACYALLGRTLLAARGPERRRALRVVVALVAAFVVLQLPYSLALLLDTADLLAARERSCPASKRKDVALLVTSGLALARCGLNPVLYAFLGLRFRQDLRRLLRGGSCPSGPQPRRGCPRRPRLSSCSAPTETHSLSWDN", "assay": "Figure S2a opioid peptide screen on chemokine receptors", "type": "cell-based", "set-up": "dose or concentration left out as unconfirmed"}, "[3]": {"biological_target": "T3, CXCR3A (Homo sapiens, UniProt P49682)", "T3 construct": "expressed in transfected cells; host or cells: U87 cells", "T3 sequence (P49682 1-368)": "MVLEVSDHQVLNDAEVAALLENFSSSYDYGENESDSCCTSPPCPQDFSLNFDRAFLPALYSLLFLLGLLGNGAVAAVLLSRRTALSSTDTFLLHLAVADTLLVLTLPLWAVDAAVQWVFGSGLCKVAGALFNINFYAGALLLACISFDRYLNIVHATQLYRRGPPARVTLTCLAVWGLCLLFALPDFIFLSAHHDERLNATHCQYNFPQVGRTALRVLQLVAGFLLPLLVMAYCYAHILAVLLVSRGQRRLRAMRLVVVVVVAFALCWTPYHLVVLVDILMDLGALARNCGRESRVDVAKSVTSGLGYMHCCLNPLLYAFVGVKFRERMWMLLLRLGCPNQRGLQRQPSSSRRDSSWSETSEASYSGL", "assay": "Figure S2a opioid peptide screen on chemokine receptors", "type": "cell-based", "set-up": "dose or concentration left out as unconfirmed"}, "[4]": {"biological_target": "T4, CXCR4 (Homo sapiens, UniProt P61073)", "T4 construct": "expressed in transfected cells; host or cells: U87, transient cotransfection of pNBe vectors", "T4 sequence (P61073 whole entry)": "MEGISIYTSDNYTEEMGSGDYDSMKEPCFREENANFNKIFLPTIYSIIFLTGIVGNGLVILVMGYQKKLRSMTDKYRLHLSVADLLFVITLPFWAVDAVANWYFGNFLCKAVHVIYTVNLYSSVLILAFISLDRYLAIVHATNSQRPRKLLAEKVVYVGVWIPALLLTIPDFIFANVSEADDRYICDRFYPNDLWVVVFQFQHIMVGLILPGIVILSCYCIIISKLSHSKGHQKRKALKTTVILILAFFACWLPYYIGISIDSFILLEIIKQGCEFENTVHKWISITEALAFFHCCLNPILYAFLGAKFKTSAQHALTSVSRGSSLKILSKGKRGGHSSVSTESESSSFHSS", "assay": "cell-based", "set-up": "dose or concentration left out as unconfirmed", "settings": "Figure S2a, read-out: CXCR4 activity, ctrl+ = 100"}, "[5]": {"biological_target": "T5, XCR1 (Homo sapiens, UniProt P46094)", "T5 construct": "expressed in transfected cells", "T5 sequence (P46094 1-333)": "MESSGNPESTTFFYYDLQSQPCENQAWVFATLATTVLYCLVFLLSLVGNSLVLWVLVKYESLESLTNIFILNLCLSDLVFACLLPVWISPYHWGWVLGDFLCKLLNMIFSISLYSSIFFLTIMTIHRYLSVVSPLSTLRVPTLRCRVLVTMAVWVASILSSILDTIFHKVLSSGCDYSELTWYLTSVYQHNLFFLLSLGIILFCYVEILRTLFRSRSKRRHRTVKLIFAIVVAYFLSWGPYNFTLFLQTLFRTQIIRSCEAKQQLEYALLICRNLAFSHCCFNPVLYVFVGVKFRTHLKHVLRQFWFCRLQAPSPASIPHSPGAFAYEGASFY", "assay": "Figure S2a opioid peptide screen on chemokine receptors", "type": "cell-based", "set-up": "dose or concentration left out as unconfirmed"}, "[6]": {"biological_target": "T6, ACKR (Homo sapiens, UniProt P25106)", "T6 construct": "expressed in transfected cells; host or cells: U87 cells (human glioblastoma)", "T6 sequence (P25106 whole entry)": "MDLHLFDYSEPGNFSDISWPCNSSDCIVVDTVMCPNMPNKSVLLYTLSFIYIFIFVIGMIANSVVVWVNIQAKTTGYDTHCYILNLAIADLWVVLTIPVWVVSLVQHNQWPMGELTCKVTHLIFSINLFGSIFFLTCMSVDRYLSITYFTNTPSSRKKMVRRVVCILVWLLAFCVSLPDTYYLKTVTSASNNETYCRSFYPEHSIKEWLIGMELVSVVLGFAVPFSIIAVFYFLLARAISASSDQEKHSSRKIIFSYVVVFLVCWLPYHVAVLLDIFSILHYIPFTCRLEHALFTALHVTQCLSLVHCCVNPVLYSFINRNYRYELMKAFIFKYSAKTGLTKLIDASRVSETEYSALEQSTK", "assay": "Figure 6h, ACKR, DMSO vs Bafilomycin treatment", "type": "cell-based", "settings": "n = 3 or 4 as in cell"}, "[7]": {"biological_target": "ACKR3 (Homo sapiens, UniProt P25106)", "sequence (P25106 whole entry)": "as above", "assay": "cell-based", "set-up": "dose or concentration left out as unconfirmed", "settings": "read-out: ACKR3 activity, ctrl+ = 100, Figure S2a"}, "[8]": {"biological_target": "T7, ACKR4 (Homo sapiens, UniProt Q9NPB9)", "T7 sequence (Q9NPB9 1-350)": "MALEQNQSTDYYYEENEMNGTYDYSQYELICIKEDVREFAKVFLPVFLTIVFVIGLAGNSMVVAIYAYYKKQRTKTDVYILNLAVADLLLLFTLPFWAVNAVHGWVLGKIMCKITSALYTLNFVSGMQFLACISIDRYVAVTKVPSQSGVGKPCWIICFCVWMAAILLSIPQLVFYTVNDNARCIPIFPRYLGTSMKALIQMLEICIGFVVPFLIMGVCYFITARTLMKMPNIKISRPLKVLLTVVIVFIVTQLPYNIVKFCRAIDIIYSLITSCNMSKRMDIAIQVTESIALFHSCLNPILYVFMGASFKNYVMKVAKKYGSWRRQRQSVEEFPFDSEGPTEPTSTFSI", "assay": "Figure S2a opioid peptide screen on chemokine receptors", "set-up": "dose or concentration left out as unconfirmed", "settings": "read-out: ACKR4 activity, ctrl+ = 100, Figure S2a"}, "[9]": {"biological_target": "KOR (Homo sapiens, UniProt P41145)", "sequence (P41145 whole entry)": "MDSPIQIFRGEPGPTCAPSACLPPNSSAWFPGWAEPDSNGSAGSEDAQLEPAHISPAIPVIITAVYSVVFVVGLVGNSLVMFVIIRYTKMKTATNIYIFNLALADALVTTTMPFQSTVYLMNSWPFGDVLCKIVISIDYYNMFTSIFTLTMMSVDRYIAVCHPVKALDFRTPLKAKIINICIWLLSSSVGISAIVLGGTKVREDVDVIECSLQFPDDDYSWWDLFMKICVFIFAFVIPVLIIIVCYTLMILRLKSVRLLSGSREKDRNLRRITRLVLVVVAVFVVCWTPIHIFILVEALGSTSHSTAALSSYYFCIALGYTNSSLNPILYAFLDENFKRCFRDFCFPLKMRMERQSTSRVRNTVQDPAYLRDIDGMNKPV", "assay": "Figure 6h, KOR, DMSO vs Bafilomycin treatment", "type": "cell-based", "set-up": "expressed in transfected cells; host or cells: U87 (human glioblastoma)", "settings": "n = 3 or 4 as in cell"}, "[10]": {"settings": "'DMSO vs Bafilomycin treatment'"}, "[11]": {"settings": "first of two columns under 'DMSO vs Bafilomycin treatment' (presumably DMSO)"}}, "note": "Where two headings read alike, the source gives them in different places."}
{"smiles": "CC(C)C[C@H](NC(=O)[C@H](Cc1ccccc1)NC(=O)CNC(=O)CNC(=O)[C@@H](N)Cc1ccc(O)cc1)C(=O)N[C@@H](CCCN=C(N)N)C(=O)N[C@@H](CCCN=C(N)N)C(=O)N[C@@H](CCC(N)=O)C(=O)N[C@@H](Cc1ccccc1)C(=O)N[C@@H](CCCCN)C(=O)N[C@H](C(=O)N[C@H](C(=O)N[C@H](C(=O)O)[C@@H](C)O)C(C)C)C(C)C", "note": "[Dynorphin B]", "values": [{"measurement": "activation", "setting": "[1]; replicate 1, read-out: CCR5 activity, ctrl+ = 100", "result": 0.97, "unit": "%"}, {"measurement": "activation", "setting": "[1]; replicate 2, read-out: CCR5 activity, ctrl+ = 100", "result": 0.0962, "unit": "%"}, {"measurement": "activation", "setting": "[1]; replicate 3, read-out: CCR5 activity, ctrl+ = 100", "result": 1.82, "unit": "%"}, {"measurement": "activation", "setting": "[2]; replicate 1, read-out: CCR10 activity, ctrl+ = 100", "result": -1.41, "unit": "%"}, {"measurement": "activation", "setting": "[2]; replicate 2, read-out: CCR10 activity, ctrl+ = 100", "result": -7.38, "unit": "%"}, {"measurement": "activation", "setting": "[2]; replicate 3, read-out: CCR10 activity, ctrl+ = 100", "result": 5.94, "unit": "%"}, {"measurement": "activation", "setting": "[3]; replicate 1, read-out: CXCR3A activity, ctrl+ = 100", "result": -2.8, "unit": "%"}, {"measurement": "activation", "setting": "[3]; replicate 2, read-out: CXCR3A activity, ctrl+ = 100", "result": -4.87, "unit": "%"}, {"measurement": "activation", "setting": "[3]; replicate 3, read-out: CXCR3A activity, ctrl+ = 100", "result": -1.97, "unit": "%"}, {"measurement": "activation", "setting": "[4]; replicate 1", "result": -12.2, "unit": "%"}, {"measurement": "activation", "setting": "[4]; replicate 2", "result": 7.15, "unit": "%"}, {"measurement": "activation", "setting": "[4]; replicate 3", "result": -6.95, "unit": "%"}, {"measurement": "activation", "setting": "[5]; replicate 1, read-out: XCR1 activity, ctrl+ = 100", "result": -1.79, "unit": "%"}, {"measurement": "activation", "setting": "[5]; replicate 2, read-out: XCR1 activity, ctrl+ = 100", "result": 0.791, "unit": "%"}, {"measurement": "activation", "setting": "[5]; replicate 3, read-out: XCR1 activity, ctrl+ = 100", "result": 9.32, "unit": "%"}, {"measurement": "Mean ± SEM (Figure 6h, ACKR)", "setting": "[6]; [10]", "result": "90,67 ± 2,557, n=3"}, {"measurement": "Mean ± SEM (Figure 6h, ACKR)", "setting": "[6]; [11]", "result": "114,2 ± 9,487, n=3"}, {"measurement": "activation", "setting": "[7]; replicate 1", "result": 87, "unit": "%"}, {"measurement": "activation", "setting": "[7]; replicate 2", "result": 63.5, "unit": "%"}, {"measurement": "activation", "setting": "[7]; replicate 3", "result": 94.7, "unit": "%"}, {"measurement": "activation", "setting": "[8]; replicate 1", "result": -5.6, "unit": "%"}, {"measurement": "activation", "setting": "[8]; replicate 2", "result": -0.628, "unit": "%"}, {"measurement": "activation", "setting": "[8]; replicate 3", "result": 0.166, "unit": "%"}, {"measurement": "Mean ± SEM (Figure 6h, KOR)", "setting": "[9]; [10]", "result": "30,69 ± 2,71, n=3"}, {"measurement": "Mean ± SEM (Figure 6h, KOR)", "setting": "[9]; [11]", "result": "28,51 ± 2,354, n=3"}]}
